One series concerns the target CXCR4 (Homo sapiens, UniProt P61073). As to the kind of experiment: Ca2+-assay method 2 (Flexstation, SDF-1 induced calcium mobilization). The note with it: method 2 (Ex. 54-160), mouse pre-B cell line 300-19 with human CXCR4, 10 nM SDF-1. The class given is cell-based. Details: expressed in transfected cells; host or cells: mouse pre-B cell line 300-19.
A short description of another series: in vitro. The note with it: human.
The subject of series [1] is human red blood cells (hRBC). The series is described as follows: Hemolysis. The class given is cell-based. The method, boiled down:
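Washed fresh human erythrocytes (20% v/v, about 0.9×10^9 cells/ml final) incubated with peptide at 100 μM for 1 h at 37° C. Supernatant diluted 20-fold and OD540 read. Percent hemolysis relative to 0.1% Triton X-100 in H2O (100%), with PBS alone as 0%.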

Where [2] appears, read: read-out: IC50 (nM) Ca^2+ assay.

For orientation: IC50 means the concentration at which inhibition is half-maximal. By GI50 is commonly meant the concentration giving 50% growth inhibition. Higher therefore signals lower sensitivity of the cells.

Where two headings read alike, the source gives them in different places. Bridge positions count the residues as written; N and C are the ends. Square brackets hold non-standard residues; d marks the D form. Peptide text beside a SMILES is read from it. 2Nal = N[C@@H](Cc1ccc2ccccc2c1)C(=O)O; Gly(N-2-aminoethyl) = NCCNCC(=O)O; Cit = NC(=O)NCCC[C@H](N)C(=O)O; Dab = NCC[C@H](N)C(=O)O Some results are limits rather than exact numbers.
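For GI50 in this document: MTT reduction read as absorbance at 595 nm, blank-corrected and expressed as percent growth relative to the time-zero cell reading, triplicate wells per concentration.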

Sequence of CXCR4 (P61073 whole entry): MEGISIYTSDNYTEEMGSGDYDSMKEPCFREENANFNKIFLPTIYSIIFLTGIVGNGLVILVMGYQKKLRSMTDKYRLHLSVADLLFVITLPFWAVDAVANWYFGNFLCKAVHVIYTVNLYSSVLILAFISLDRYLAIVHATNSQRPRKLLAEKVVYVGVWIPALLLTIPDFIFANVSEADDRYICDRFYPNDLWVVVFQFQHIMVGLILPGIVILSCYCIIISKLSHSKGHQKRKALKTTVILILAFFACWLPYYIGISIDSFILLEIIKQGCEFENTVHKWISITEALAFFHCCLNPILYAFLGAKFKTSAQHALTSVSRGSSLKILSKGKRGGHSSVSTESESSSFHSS

Turning to `C[C@@H](O)[C@@H]1NC(=O)[C@H](Cc2ccc(O)cc2)NC(=O)[C@@H]2CSSC[C@H](NC(=O)[C@H](CCCNC(N)=O)NC(=O)[C@H](CCCNC(=N)N)NC(=O)[C@H](Cc3ccc(O)cc3)NC(=O)[C@@H]3CCCN3C(=O)[C@H]3CCCN3C(=O)[C@H](CCCCN)NC1=O)C(=O)N[C@@H](CCCNC(=N)N)C(=O)NCC(=O)N1CCC[C@@H]1C(=O)N[C@@H](CCCNC(=N)N)C(=O)N[C@@H](CCCNC(=N)N)C(=O)N[C@@H](Cc1ccc3ccccc3c1)C(=O)N2` [Ex. 133] (cyclo(YR[Cit]CRG[dP]RR[2Nal]CYTK[dP]P); disulfide 4-11), the IC50 on CXCR4 (setting [2]) stood at 5.3 nM. In addition, in “in vitro”, the GI50 at 48 h worked out at 45000 nM. The compound also came in with a Hemolysis at 100 μM in series [1] of 0.1%.

In the case of `N=C(N)NCCC[C@@H]1NC(=O)[C@@H]2CSSC[C@H](NC(=O)[C@H](Cc3ccc4ccccc4c3)NC(=O)[C@H](CCCNC(=N)N)NC(=O)[C@H](CCN)NC(=O)[C@H]3CCCN3C(=O)CNC1=O)C(=O)N[C@@H](Cc1ccc(O)cc1)C(=O)N[C@@H](CCCNC(N)=O)C(=O)N[C@@H](CCCCN)C(=O)N1CCC[C@@H]1C(=O)N1CCC[C@H]1C(=O)N[C@@H](Cc1ccc(O)cc1)C(=O)N[C@@H](CCCNC(=N)N)C(=O)N[C@@H](CCCNC(N)=O)C(=O)N2` [Ex. 134] (cyclo(YR[Cit]CRG[dP][Dab]R[2Nal]CY[Cit]K[dP]P); disulfide 4-11), the IC50 at CXCR4 (setting [2]) worked out at 1.7 nM. Moreover, in “in vitro”, the 50% growth inhibitory concentration (GI50) at 48 h amounted to 21000 nM. In series [1], the Hemolysis at 100 μM is 0%.

`N=C(N)NCCC[C@@H]1NC(=O)[C@@H]2CSSC[C@H](NC(=O)[C@H](Cc3c[nH]c4ccccc34)NC(=O)[C@H](CCCNC(=N)N)NC(=O)[C@H](CCCNC(N)=O)NC(=O)[C@H]3CCCN3C(=O)CNC1=O)C(=O)N[C@@H](Cc1ccc(O)cc1)C(=O)N[C@@H](CCCNC(N)=O)C(=O)N[C@@H](CCCCN)C(=O)N1CCC[C@@H]1C(=O)N1CCC[C@H]1C(=O)N[C@@H](Cc1ccc(O)cc1)C(=O)N[C@@H](CCCNC(=N)N)C(=O)N[C@@H](CCCNC(N)=O)C(=O)N2` [Ex. 136] (cyclo(YR[Cit]CRG[dP][Cit]RWCY[Cit]K[dP]P); disulfide 4-11): the IC50 on CXCR4 (setting [2]) worked out at 4.1 nM. The same compound yielded a GI50 at 48 h in the series “in vitro” above 100000 nM. In series [1], this compound showed a Hemolysis at 100 μM of 0%.

For `N=C(N)NCCC[C@@H]1NC(=O)[C@@H]2CSSC[C@H](NC(=O)[C@H](Cc3c[nH]c4ccccc34)NC(=O)[C@H](CCCNC(=N)N)NC(=O)[C@H](Cc3c[nH]cn3)NC(=O)[C@H]3CCCN3C(=O)CNC1=O)C(=O)N[C@@H](Cc1ccc(O)cc1)C(=O)N[C@@H](CCCNC(N)=O)C(=O)N[C@@H](CCCCN)C(=O)N1CCC[C@@H]1C(=O)N1CCC[C@H]1C(=O)N[C@@H](Cc1ccc(O)cc1)C(=O)N[C@@H](CCCNC(=N)N)C(=O)N[C@@H](CCCNC(N)=O)C(=O)N2` [Ex. 137] (cyclo(YR[Cit]CRG[dP]HRWCY[Cit]K[dP]P); disulfide 4-11), the IC50 at CXCR4 (setting [2]) is 1.28 nM. This compound displayed a GI50 at 48 h in the series “in vitro” of 79000 nM. Besides, in series [1], the Hemolysis at 100 μM is 0.5%.

Turning to `N=C(N)NCCC[C@@H]1NC(=O)[C@H](CCCNC(=N)N)NC(=O)[C@H]2CCCN2C(=O)CNC(=O)CN(CCN)C(=O)[C@@H]2CSSC[C@H](NC(=O)[C@H](Cc3ccc4ccccc4c3)NC1=O)C(=O)N[C@@H](Cc1ccc(O)cc1)C(=O)N[C@@H](CCCNC(N)=O)C(=O)N[C@@H](CCCCN)C(=O)N1CCC[C@@H]1C(=O)N1CCC[C@H]1C(=O)N[C@@H](Cc1ccc(O)cc1)C(=O)N[C@@H](CCCNC(=N)N)C(=O)N[C@@H](CCCNC(N)=O)C(=O)N2` [Ex. 138] (cyclo(YR[Cit]C[Gly(N-2-aminoethyl)]G[dP]RR[2Nal]CY[Cit]K[dP]P); disulfide 4-11), at CXCR4 (setting [2]), the 50% inhibitory concentration (IC50) was 63 nM. This compound also gave a GI50 at 48 h in the series “in vitro” of 18000 nM. This compound also displayed a Hemolysis at 100 μM in series [1] of 0%.

For `C[C@@H](O)[C@@H]1NC(=O)[C@H](CCCNC(=N)N)NC(=O)[C@H](Cc2ccc(O)cc2)NC(=O)[C@@H]2CCCN2C(=O)[C@H]2CCCN2C(=O)[C@H](CCCCN)NC(=O)[C@H](CCC(N)=O)NC(=O)[C@H](Cc2ccc(O)cc2)NC(=O)[C@@H]2CSSC[C@H](NC1=O)C(=O)N[C@@H](CCCNC(=N)N)C(=O)NCC(=O)N1CCC[C@@H]1C(=O)N[C@@H](CCCNC(=N)N)C(=O)N[C@@H](CCCNC(=N)N)C(=O)N[C@@H](Cc1ccc(O)cc1)C(=O)N2` [Ex. 145] (cyclo(YRTCRG[dP]RRYCYQK[dP]P); disulfide 4-11), the IC50 on CXCR4 (setting [2]) is 0.38 nM. In “in vitro”, this compound had a GI50 at 48 h of 97000 nM. In addition, in series [1], the Hemolysis at 100 μM is 0%.

Regarding `N=C(N)NCCC[C@@H]1NC(=O)[C@@H]2CSSC[C@H](NC(=O)[C@H](Cc3ccc(O)cc3)NC(=O)[C@H](CCCNC(=N)N)NC(=O)[C@H](CCCNC(=N)N)NC(=O)[C@H]3CCCN3C(=O)CNC1=O)C(=O)N[C@@H](Cc1ccc(O)cc1)C(=O)N[C@@H](CCC(N)=O)C(=O)N[C@@H](CCCCN)C(=O)N1CCC[C@@H]1C(=O)N1CCC[C@H]1C(=O)N[C@@H](Cc1ccc(O)cc1)C(=O)N[C@@H](CCCNC(=N)N)C(=O)N[C@@H](Cc1ccc(O)cc1)C(=O)N2` [Ex. 148] (cyclo(YRYCRG[dP]RRYCYQK[dP]P); disulfide 4-11), on CXCR4 (setting [2]), the IC50 was found to be 0.65 nM. In the series “in vitro”, this compound came in with a GI50 at 48 h of 46000 nM. The Hemolysis at 100 μM in series [1] worked out at 71%.

Turning to `N=C(N)NCCC[C@@H]1NC(=O)[C@@H]2CSSC[C@H](NC(=O)[C@H](Cc3ccc(O)cc3)NC(=O)[C@H](CCCNC(=N)N)NC(=O)[C@H](CCCNC(=N)N)NC(=O)[C@H]3CCCN3C(=O)CNC1=O)C(=O)N[C@@H](Cc1ccc(O)cc1)C(=O)N[C@@H](CCC(N)=O)C(=O)N[C@@H](CCCCN)C(=O)N[C@H](CCC(N)=O)C(=O)N1CCC[C@H]1C(=O)N[C@@H](Cc1ccc(O)cc1)C(=O)N[C@@H](CCCNC(=N)N)C(=O)N[C@@H](CCCNC(N)=O)C(=O)N2` [Ex. 149] (cyclo(YR[Cit]CRG[dP]RRYCYQK[dQ]P); disulfide 4-11), the IC50 on CXCR4 (IC50 (nM) Ca^2+ assay) was found to be 1 nM. In addition, the GI50 at 48 h in “in vitro” was above 100000 nM. In series [1] (percent hemolysis, 100 μM peptide, 20% v/v hRBC, 1 hour at 37° C.), this compound came in with a Hemolysis at 100 μM of 0%.

Take `N=C(N)NCCC[C@@H]1NC(=O)[C@@H]2CCC(=O)NCC[C@H](NC(=O)[C@H](Cc3c[nH]c4ccccc34)NC(=O)[C@H](CCCNC(=N)N)NC(=O)[C@H](CCCNC(=N)N)NC(=O)[C@H]3CCCN3C(=O)CNC1=O)C(=O)N[C@@H](Cc1ccc(O)cc1)C(=O)N[C@@H](CCCNC(N)=O)C(=O)N[C@@H](CCCCN)C(=O)N1CCC[C@@H]1C(=O)N1CCC[C@H]1C(=O)N[C@@H](Cc1ccc(O)cc1)C(=O)N[C@@H](CCCNC(=N)N)C(=O)N[C@@H](CCCNC(N)=O)C(=O)N2` [Ex. 153] (cyclo(YR[Cit]ERG[dP]RRW[Dab]Y[Cit]K[dP]P); lactam 4-11): the IC50 on CXCR4 (setting [2]) stood at 21.9 nM. This compound showed a concentration for 50% growth inhibition (GI50) at 48 h in the series “in vitro” of 43000 nM. For the same compound, the Hemolysis at 100 μM in series [1] is 1.7%.

Turning to `N=C(N)NCCC[C@@H]1NC(=O)[C@@H]2CSSC[C@H](NC(=O)[C@H](Cc3ccc4ccccc4c3)NC(=O)[C@H](CCCNC(=N)N)NC(=O)[C@H](CCCNC(=N)N)NC(=O)[C@H]3CCCN3C(=O)CNC1=O)C(=O)N[C@@H](Cc1ccc(O)cc1)C(=O)N[C@@H](CCCNC(=N)N)C(=O)N[C@@H](CCCCN)C(=O)N1CCC[C@@H]1C(=O)N1CCC[C@H]1C(=O)N[C@@H](Cc1ccc(O)cc1)C(=O)N[C@@H](CCCNC(=N)N)C(=O)N[C@@H](CCCNC(N)=O)C(=O)N2` [compound 57] (cyclo(YR[Cit]CRG[dP]RR[2Nal]CYRK[dP]P); disulfide 4-11), the IC50 at CXCR4 (setting [2]) was 4.2 nM. Further, growth in “in vitro” was halved (GI50 at 48 h) at 33000 nM. This compound yielded a Hemolysis at 100 μM in series [1] of 0.1%.

Turning to `N=C(N)NCCC[C@@H]1NC(=O)[C@@H]2CSSC[C@H](NC(=O)[C@H](Cc3ccc4ccccc4c3)NC(=O)[C@H](CCCNC(=N)N)NC(=O)[C@H](CCCNC(=N)N)NC(=O)[C@H]3CCCN3C(=O)CNC1=O)C(=O)N[C@@H](Cc1ccc(O)cc1)C(=O)N[C@@H](CCC(N)=O)C(=O)N[C@@H](CCCCN)C(=O)N1CCC[C@@H]1C(=O)N1CCC[C@H]1C(=O)N[C@@H](CCCNC(=N)N)C(=O)N[C@@H](CCCNC(=N)N)C(=O)N[C@@H](CCCNC(N)=O)C(=O)N2` [compound 63] (cyclo(RR[Cit]CRG[dP]RR[2Nal]CYQK[dP]P); disulfide 4-11), on CXCR4 (setting [2]), the IC50 came to 2 nM. The compound further had a GI50 at 48 h in the series “in vitro” of 58000 nM. This compound also came in with a Hemolysis at 100 μM in series [1] of 0.2%.

Source of the values: patent US8895695B2, “Template-fixed beta-hairpin peptidomimetics with CXCR4 antagonizing activity” (priority 2003, dated 2014).
